Our source for the EC50 values is US12440496B2, “Natriuretic peptide receptor a agonists useful for the treatment of cardiometabolic diseases, kidney disease and diabetes” (Merck Sharp & Dohme LLC, priority 2019, dated 2025).

The experiment has as its target T1, hNPRA (Homo sapiens, UniProt P16066).
T1 construct: expressed in transfected cells
T1 sequence (P16066 33-1061): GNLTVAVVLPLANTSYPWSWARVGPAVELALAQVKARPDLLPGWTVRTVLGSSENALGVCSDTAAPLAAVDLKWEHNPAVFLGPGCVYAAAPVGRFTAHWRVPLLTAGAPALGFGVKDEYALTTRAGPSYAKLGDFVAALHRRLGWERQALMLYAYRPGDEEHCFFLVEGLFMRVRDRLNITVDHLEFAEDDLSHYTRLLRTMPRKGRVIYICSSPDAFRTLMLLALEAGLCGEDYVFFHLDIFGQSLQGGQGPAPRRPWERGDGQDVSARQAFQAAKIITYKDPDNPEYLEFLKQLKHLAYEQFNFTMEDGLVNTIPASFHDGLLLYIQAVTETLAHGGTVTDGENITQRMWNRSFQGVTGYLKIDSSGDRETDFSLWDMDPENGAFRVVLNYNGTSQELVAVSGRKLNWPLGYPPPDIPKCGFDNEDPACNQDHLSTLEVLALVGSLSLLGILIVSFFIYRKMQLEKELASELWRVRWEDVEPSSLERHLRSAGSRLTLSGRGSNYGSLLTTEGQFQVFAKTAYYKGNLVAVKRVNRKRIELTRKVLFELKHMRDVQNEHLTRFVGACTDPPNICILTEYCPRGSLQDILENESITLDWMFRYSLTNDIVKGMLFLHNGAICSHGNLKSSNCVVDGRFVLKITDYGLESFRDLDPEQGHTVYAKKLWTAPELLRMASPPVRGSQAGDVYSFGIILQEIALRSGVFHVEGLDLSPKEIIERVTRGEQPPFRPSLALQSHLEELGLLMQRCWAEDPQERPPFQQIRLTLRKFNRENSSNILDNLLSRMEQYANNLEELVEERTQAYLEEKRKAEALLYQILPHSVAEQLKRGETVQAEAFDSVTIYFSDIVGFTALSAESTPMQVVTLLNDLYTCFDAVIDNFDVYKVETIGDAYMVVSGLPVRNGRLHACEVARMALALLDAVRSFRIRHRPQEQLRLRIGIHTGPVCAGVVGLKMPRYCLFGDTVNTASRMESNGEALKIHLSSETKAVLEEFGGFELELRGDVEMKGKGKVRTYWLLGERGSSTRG
Put plainly: NPRA Functional Cell Assay (cGMP HTRF, NPRA HEK JumpIn stable cells). It counts as cell-based. Conditions: cGMP production, 1 hour at 37° C., 10-point dose response. The essentials: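 cGMP HTRF read-out after 1 hour compound treatment at 37° C. of human NPRA-expressing HEK JumpIn cells, 1500 cells/well, in buffer with phosphodiesterase inhibitors IBMX and RO20 (100 uM each). Signal converted to [cGMP] by calibration curve; EC50s fitted by 4-parameter logistic; 50 nM h-ANP as positive response.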
Background: TR-FRET usually uses a lanthanide donor and a delayed reading to cut background.
A word on the EC50: it is the midpoint of the concentration-response curve. As to `CC(C)(C)[C@H]1CCc2nc3sc(C(=O)N[C@H](CCN4CCC(C(F)F)CC4)c4ccc(-c5ccc(=O)[nH]c5)cc4)cc3cc2C1` (racemic) [Example 60, rac-(6S)-6-tert-butyl-N-[rac-(1R)-3-[4-(difluoromethyl)piperidin-1-ium-1-yl]-1-[4-(6-oxo-1H-pyridin-3-yl)phenyl]propyl]-5,6,7,8-tetrahydrothieno[2,3-b]quinoline-2-carboxamide;formate], the EC50 came out at 1010 nM.
The compound `CN(C)S(=O)(=O)Nc1ccc([C@@H](CCN2CC[C@@H](O)C2)NC(=O)c2nc3cc4c(nc3s2)CC[C@H](C(C)(C)C)C4)cn1` (racemic) [Example 211, rac-(7S)-7-tert-butyl-N-[rac-(1R)-1-[6-(dimethylsulfamoylamino)-3-pyridyl]-3-[rac-(3R)-3-hydroxypyrrolidin-1-ium-1-yl]propyl]-5,6,7,8-tetrahydrothiazolo[5,4-b]quinoline-2-carboxamide; 2,2,2-trifluoroacetate] yielded an EC50 of 764 nM.
Regarding `CC(C)(C)[C@H]1CCc2nc3sc(C(=O)N[C@H](CCN4CCC(O)CC4)c4ccc(-c5csc(C(=O)O)c5)cc4)nc3cc2C1` (racemic) [Example 126, 4-[4-[rac-(1R)-3-(4-hydroxy-1-piperidyl)-1-[[rac-(7S)-7-tert-butyl-5,6,7,8-tetrahydrothiazolo[5,4-b]quinoline-2-carbonyl]amino]propyl]phenylthiophene-2-carboxylic acid], it took 374 nM to reach a half-maximal effect (EC50).
The compound `CC(C)(C)[C@H]1CCc2nc3sc(C(=O)N[C@H](CCN4CC(c5ccccn5)C4)c4cccc(NS(C)(=O)=O)c4)cc3cc2C1` (racemic) [Example 22, ammonium; methylsulfonyl-[3-[rac-(1R)-3-[3-(2-pyridyl)azetidin-1-y1]-1-[[rac-(6S)-6-tert-butyl-5,6,7,8-tetrahydrothieno[2,3-b]quinoline-2-carbonyl]amino]propyl]phenyl] azanide] came in with an EC50 of 1790 nM.
Turning to `CC(C)(C)[C@H]1CCc2nc3sc(C(=O)N[C@H](CCN4CCC[C@H]4CO)c4ccc(-c5ccc(=O)[nH]c5)cc4)cc3cc2C1` (racemic) [Example 38, rac-(6S)-6-tert-butyl-N-[rac-(1R)-1-[4-(6-oxo-1H-pyridin-3-yl)phenyl]-3-[rac-(2S)-2-(hydroxymethyl)pyrrolidin-1-ium-1-yl]propyl]-5,6,7,8-tetrahydrothieno[2,3-b]quinoline-2-carboxamide;formate], the response was half-maximal at 582 nM (EC50).
For `CN1CCCC(NC(=O)c2cccc([C@@H](CCN3CCC(O)CC3)NC(=O)c3nc4cc5c(nc4s3)CC[C@H](C(C)(C)C)C5)c2)C1` (mixture of isomers) [Example 140, rac-(7S)-7-tert-butyl-N-[rac-(1R)-3-(4-hydroxy-1-piperidyl)-1-[3-[(1-methyl-3-piperidyl)carbamoyl]phenyl]propyl]-5,6,7,8-tetrahydrothiazolo[5,4-b]quinoline-2-carboxamide], the EC50 worked out at 224 nM.
In the case of `CN1CC(NC(=O)c2cccc([C@@H](CCN3CCC(C(=O)O)C3)NC(=O)c3nc4cc5c(nc4s3)CC[C@H](C(C)(C)C)C5)c2)C1` (mixture of isomers) [Example 112, rac-(3R)-1-[rac-(3R)-3-[3-[(1-methylazetidin-1-ium-3-yl)carbamoyl]phenyl]-3-[rac-(7S)-7-tert-butyl-5,6,7,8-tetrahydrothiazolo[5,4-b]quinoline-2-carbonyl]amino]propyl]pyrrolidine-3-carboxylic acid; 2,2,2-trifluoroacetate], the EC50 amounted to 754 nM.
`CC1(C)CN(CC[C@@H](NC(=O)c2nc3cc4c(nc3s2)CC[C@H](C(C)(C)C)C4)c2ccc(-c3ccc(=O)[nH]c3)cc2)C1` (racemic) [Example 77, rac-(7S)-7-tert-butyl-N-[rac-(1R)-3-(3,3-dimethylazetidin-1-yl)-1-[4-(6-oxo-1H-pyridin-3-yl)phenyl]propyl]-5,6,7,8-tetrahydrothiazolo[5,4-b]quinoline-2-carboxamide]: the EC50 was found to be 681 nM.
As to `CC(C)(C)C1CCc2nc3sc(C(=O)NC(CCN4CCC(O)CC4)c4ccc(N5CCC(O)C5=O)nc4)nc3cc2C1` (racemic) [Example 188, rac-(7S)-7-tert-butyl-N-[rac-(1R)-1-[6-(3-hdyroxy-2-oxo-pyrrolidin-1-yl)-3-pyridyl]-3-(4-hydroxy-1-piperidyl)propyl]-5,6,7,8-tetrahydrothiazolo[5,4-b]quinoline-2-carboxamide], it took 938 nM to reach a half-maximal effect (EC50).
`CC(C)(C)[C@H]1CCc2nc3sc(C(=O)N[C@H](CCN4CCC(C(=O)O)CC4)c4ccc(-c5ccc(=O)[nH]c5)cc4)cc3cc2C1` (racemic) [Example 44, 1-[rac-(3R)-3-[4-(6-oxo-1H-pyridin-3-yl)phenyl]-3-[rac-(6S)-6-tert-butyl-5,6,7,8-tetrahydrothieno[2,3-b]quinoline-2-carbonyl]amino]propyl] piperidin-1-ium-4-carboxylic acid;formate] returned an EC50 of 665 nM. This EC50 and that of the compound before are within 1.5-fold of each other.
`CC(C)(C)[C@H]1CCc2nc3sc(C(=O)N[C@H](CCN4CCC(C#N)CC4)c4ccc(-c5ccc(=O)[nH]c5)cc4)cc3cc2C1` (racemic) [Example 68, rac-(6S)-6-tert-butyl-N-[rac-(1R)-3-(4-cyanopiperidin-1-ium-1-yl)-1-[4-(6-oxo-1H-pyridin-3-yl)phenyl]propyl]-5,6,7,8-tetrahydrothieno[2,3-b]quinoline-2-carboxamide;formate]: it took 1810 nM to reach a half-maximal effect (EC50).
The compound `CC1([C@H]2CCc3nc4sc(C(=O)N[C@H](CCN5CCC(O)CC5)c5ccc(N6CCOC6=O)cc5)nc4cc3C2)CC1` [Example 231, (S)-N-((R)-3-(4-hydroxypiperidin-1-yl)-1-(4-(2-oxooxazolidin-3-yl)phenyl)propyl)-7-(1-methylcyclopropyl)-5,6,7,8-tetrahydrothiazolo[5,4-b]quinoline-2-carboxamide] gave an EC50 of 725 nM.
For the compound `CN(C)CC[C@@H](NC(=O)c1nc2cc3c(nc2s1)CC[C@H](C(C)(C)C)C3)c1cccc(C(=O)N2CC(N)C2)c1` (racemic) [Example 94, rac-(7S)-7-tert-butyl-N-[rac-(1R)-1-[3-(3-aminoazetidine-1-carbonyl)phenyl]-3-(dimethylamino)propyl]-5,6,7,8-tetrahydrothiazolo [5,4-b]quinoline-2-carboxamide], the EC50 is 566 nM. The EC50 values of the last two compounds are within 1.5-fold of each other.
As for `CC(C)(C)[C@H]1CCc2nc3sc(C(=O)N[C@H](CCN4CCC(CO)CC4)c4ccccc4)cc3cc2C1` [Example 255, (6S)-6-tert-butyl-N-{(1R)-3-[4-(hydroxymethyl)piperidin-1-yl]-1-phenylpropyl}-5,6,7,8-tetrahydrothieno[2,3-b]quinoline-2-carboxamide], the figure is 2930 nM; as for `CC(C)(C)[C@H]1CCc2nc3sc(C(=O)N[C@H](CCNC4CCOCC4)c4ccc(-c5ccc(=O)[nH]c5)cc4)nc3cc2C1` (racemic) [Example 75, rac-(7S)-7-tert-butyl-N-[rac-(1R)-1-[4-(6-oxo-1H-pyridin-3-yl)phenyl]-3-(tetrahydropyran-4-ylamino)propyl]-5,6,7,8-tetrahydrothiazolo[5,4-b]quinoline-2-carboxamide], 634 nM.
As to `CC(C)(C)[C@H]1CCc2nc3sc(C(=O)N[C@H](CCN4CCC(C(=O)O)CC4)c4ccc(N5CC(=O)NC5=O)nc4)nc3cc2C1` [Example 222, 1-((R)-3-((S)-7-(tert-butyl)-5,6,7,8-tetrahydrothiazolo[5,4-b]quinoline-2-carboxamido)-3-(6-(2,4-dioxoimidazolidin-1-yl)pyridin-3-yl)propyl)piperidine-4-carboxylic acid], the 50% effective concentration (EC50) worked out at 626 nM.
